From BindingDB's records for patent US8829190 (Leo Pharma, 2014)

Target: cAMP-specific 3',5'-cyclic phosphodiesterase 4D (Homo sapiens, UniProt Q08499)
Test: Binding Assay
Protocol: Human recombinant PDE4 (Gene bank accession no NM006203) was incubated for 1 hour with the test compound at concentrations up to 10 μM, with cAMP (1x10-5M), and with a low amount (0.021 MBq) of radioactively labelled cAMP. At the end of the incubation, the cleavage of the substrate was evaluated by the binding of the AMP product to SPA beads, which generate chemo luminescence when bound to the radioactive tracer. The AMP product inhibited the binding of the radioactive tracer to the beads, and the luminescent signal was competed.

Chain of cAMP-specific 3',5'-cyclic phosphodiesterase 4D (Q08499 whole entry): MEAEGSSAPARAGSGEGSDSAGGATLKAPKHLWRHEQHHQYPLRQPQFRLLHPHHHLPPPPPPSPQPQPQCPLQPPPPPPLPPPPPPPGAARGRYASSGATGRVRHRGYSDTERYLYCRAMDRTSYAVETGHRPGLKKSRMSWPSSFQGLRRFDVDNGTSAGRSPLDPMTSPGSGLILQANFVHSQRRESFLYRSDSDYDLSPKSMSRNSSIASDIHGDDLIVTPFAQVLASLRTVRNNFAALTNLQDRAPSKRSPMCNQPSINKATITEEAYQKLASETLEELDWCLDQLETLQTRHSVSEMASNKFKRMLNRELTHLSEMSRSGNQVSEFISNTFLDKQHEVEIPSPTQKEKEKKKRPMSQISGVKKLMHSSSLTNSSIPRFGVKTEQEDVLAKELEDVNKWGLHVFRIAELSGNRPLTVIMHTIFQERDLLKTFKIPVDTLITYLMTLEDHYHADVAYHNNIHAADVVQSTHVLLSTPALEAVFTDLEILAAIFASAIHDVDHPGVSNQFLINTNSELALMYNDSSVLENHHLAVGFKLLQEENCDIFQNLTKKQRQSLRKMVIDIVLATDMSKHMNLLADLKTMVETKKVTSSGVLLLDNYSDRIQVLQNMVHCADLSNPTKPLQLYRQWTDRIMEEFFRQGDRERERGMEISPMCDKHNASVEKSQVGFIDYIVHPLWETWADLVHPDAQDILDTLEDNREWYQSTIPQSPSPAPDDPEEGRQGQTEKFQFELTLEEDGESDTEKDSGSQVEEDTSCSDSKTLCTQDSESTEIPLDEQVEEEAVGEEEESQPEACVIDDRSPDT

Compound `COc1ccc(C(=O)Cc2ccccc2Cl)n2nc(C3CC3)nc12` [US8829190, 127] has an IC50 of 46 nM.
